According to the Deep4Chem optical property database:

Assay: solvent given as SMILES

## CCN(CC)c1ccc(/C=C2\CC/C(=C\c3ccc(N(c4ccccc4)c4ccccc4)cc3)C2=C(C#N)C#N)cc1
In CN(C)C=O
  emission maximum: 716 nm

## F[B-]1(F)OC(c2cccc(Br)c2)=Cc2ccc3ccccc3[n+]21
In ClC(Cl)Cl
  emission maximum: 435 nm

## COc1ccc(/C=C/C2=CC(/C=C/c3ccc(OC)cc3)=[O+][B-](F)(F)O2)cc1
In CC#N
  emission maximum: 549 nm
In CC(C)=O
  emission maximum: 534 nm
In CCOC(C)=O
  emission maximum: 515 nm
In CCOCC
  emission maximum: 497 nm
In ClC(Cl)(Cl)Cl
  emission maximum: 492 nm
In ClCCl
  emission maximum: 538 nm

## O=C(c1ccc(C(=C(c2ccc(C(=O)c3ccc(-n4c5ccccc5c5ccccc54)cc3)cc2)c2ccc(C(=O)c3ccc(-n4c5ccccc5c5ccccc54)cc3)cc2)c2ccccc2)cc1)c1ccc(-n2c3ccccc3c3ccccc32)cc1
In C1CCOC1
  emission maximum: 503 nm

## COc1ccc(-n2cccc2)cc1
In CC#N
  emission maximum: 327 nm
In CCCCCC
  emission maximum: 324 nm

## C(=C/c1ccc(N(c2ccccc2)c2ccccc2)cc1)/c1ccc(N(c2ccccc2)c2ccccc2)cc1
In ClCCl
  emission maximum: 441 nm

## Cc1cc2c(cc1C)NC(=O)CC(=O)N2
In CS(C)=O
  emission maximum: 349 nm

## CCCCOc1c(C#N)cc2cc(C#N)c(OCCCC)c3c4c(OCCCC)c(C#N)cc5cc(C#N)c(OCCCC)c(c1c23)c54
In ClCCl
  emission maximum: 514 nm

## CC1(C)Oc2c(c3nc4ccccc4nc3c3ccccc23)CC1Br (stereo unspecified)
In C1CCCCC1
  emission maximum: 431.03 nm
In C1CCOC1
  emission maximum: 448.83 nm
In C1COCCO1
  emission maximum: 449.44 nm
In CC#N
  emission maximum: 457.04 nm
In CC(C)O
  emission maximum: 464.25 nm
In CCCCCC
  emission maximum: 430.66 nm
In CN(C)C=O
  emission maximum: 458.3 nm
In CO
  emission maximum: 475.96 nm
In c1ccccc1
  emission maximum: 444.25 nm

## COc1ccc(C2=Cc3ccc4ccccc4[n+]3[B-](F)(F)O2)cc1
In ClC(Cl)Cl
  emission maximum: 457 nm

## CCCN1/C(=C/C=C(/C=C/c2sc3ccccc3[n+]2CCC)c2ccc([N+](=O)[O-])cc2)Sc2ccccc21
In CO
  emission maximum: 663 nm
In CS(C)=O
  emission maximum: 673 nm
In O
  emission maximum: 669 nm

## CCN(CC)c1ccc(/N=N/c2nc3ccc([N+](=O)[O-])cc3s2)cc1
In CC#N
  emission maximum: 607 nm
In ClCCl
  emission maximum: 603 nm

## COc1ccc(-c2nc3c(c4c2-c2ccccc2CC4)-c2ccccc2CC3)cc1
In C1CCOC1
  emission maximum: 420 nm
In CC#N
  emission maximum: 416 nm
In CCCCCC
  emission maximum: 408 nm
In CCOC(C)=O
  emission maximum: 425 nm
In CO
  emission maximum: 428 nm
In CS(C)=O
  emission maximum: 415 nm
In Cc1ccccc1
  emission maximum: 419 nm
In ClCCl
  emission maximum: 424 nm

## CCn1c2ccccc2c2cc(/C=C/c3cc(/C=C/c4ccc5c(c4)c4ccccc4n5CC)[n+](CCCS(=O)(=O)[O-])c(/C=C/c4ccc5c(c4)c4ccccc4n5CC)c3)ccc21
In C1CCOC1
  emission maximum: 605 nm
In CC#N
  emission maximum: 611 nm
In CC(C)=O
  emission maximum: 610 nm
In Cc1ccccc1
  emission maximum: 599 nm

## O=Cc1ccc(N(c2ccc(C=O)cc2)c2ccc(-c3ccc4c(c3)C(=O)c3ccccc3C4=O)cc2)cc1
In C1CCOC1
  emission maximum: 662 nm
In CCCCCC
  emission maximum: 493 nm
In CCOC(C)=O
  emission maximum: 654 nm
In CCOCC
  emission maximum: 585 nm
In Cc1ccccc1
  emission maximum: 558 nm
In ClC(Cl)(Cl)Cl
  emission maximum: 541 nm
In ClCCl
  emission maximum: 685 nm

## CCCCC(CC)CN1C(=O)c2cc(Oc3ccc(OC)cc3)c3c4c(Cl)cc5c6c(cc(Cl)c(c7c(Oc8ccc(OC)cc8)cc(c2c37)C1=O)c64)C(=O)N(c1c(C(C)C)cccc1C(C)C)C5=O (stereo unspecified)
In Cc1ccccc1
  emission maximum: 614 nm

## C=C[Si](c1c2ccccc2cc2ccccc12)(c1c2ccccc2cc2ccccc12)c1c2ccccc2cc2ccccc12
In ClC(Cl)Cl
  emission maximum: 437 nm

## COc1cccc(-n2c(-c3ccc(F)cc3)nc(C)c2C)c1
In C1COCCO1
  emission maximum: 369 nm
In CC#N
  emission maximum: 365.4 nm
In CCCCCC
  emission maximum: 369 nm
In CCCCO
  emission maximum: 370 nm
In CCO
  emission maximum: 371 nm
In CCOC(C)=O
  emission maximum: 367 nm
In CO
  emission maximum: 368 nm
In ClC(Cl)Cl
  emission maximum: 369 nm
In ClCCl
  emission maximum: 368 nm
In c1ccccc1
  emission maximum: 365 nm

## COc1ccc(C2=[N+]3C(=Nc4c(C)cc(-c5ccc(OC)cc5)n4[B-]3(F)F)C(C)=C2)cc1
In CS(C)=O
  emission maximum: 692 nm

## CCc1ccc(C2=[N+]3C(=Cc4c5ccc(OC)cc5c(-c5ccc(CC)s5)n4[B-]3(F)F)c3ccc(OC)cc32)s1
In ClCCl
  emission maximum: 780 nm

## N#Cc1cc2ccccc2oc1=N
In C1CCOC1
  emission maximum: 409 nm
In CC#N
  emission maximum: 407 nm
In CCOC(C)=O
  emission maximum: 410 nm
In CS(C)=O
  emission maximum: 406 nm
In ClC(Cl)Cl
  emission maximum: 411 nm

## c1ccc(-c2nc(-c3ccccc3)n3ccccc23)cc1
In C1CCCCC1
  emission maximum: 445 nm
In CC#N
  emission maximum: 478 nm
In CO
  emission maximum: 477 nm
In ClC(Cl)Cl
  emission maximum: 454 nm
In ClCCl
  emission maximum: 484 nm
In O
  emission maximum: 479 nm

## N#Cc1cc2ccc([O-])cc2oc1=O
In O
  emission maximum: 450 nm

## COC(=O)c1cc(=O)n(C)c2cc(-c3ccccc3N(C)C)sc12
In CC#N
  emission maximum: 484 nm
In ClCCl
  emission maximum: 537 nm
